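Compound exposure: 48 hours, 5 concentrations, 96-well plates. GI50 marks 50% less growth.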 The source made the active and inactive calls. No stated cut-off is given here; in the data, active = GI50 up to about 1.1 µM and inactive = higher.
Assays:
Assay in all cases: NCI-60 cell line screen, 48 h
SF-268 = test system: SF-268
UO-31 = test system: UO-31
UACC-257 = test system: UACC-257
EKVX = test system: EKVX
SK-MEL-28 = test system: SK-MEL-28
HCT-116 = test system: HCT-116
COLO 205 = test system: COLO 205
M14 = test system: M14
HOP-62 = test system: HOP-62
OVCAR-5 = test system: OVCAR-5
RXF 393 = test system: RXF 393
A549 = test system: A549
SK-MEL-2 = test system: SK-MEL-2
HCC 2998 = test system: HCC 2998
RPMI-8226 = test system: RPMI-8226
MOLT-4 = test system: MOLT-4
HL-60 = test system: HL-60
SN12C = test system: SN12C
OVCAR-3 = test system: OVCAR-3
SK-MEL-5 = test system: SK-MEL-5

Measured: GI50

C=CC(C)CCC(C/C=C(\C)CCCC(C)C)C(=C)CCCC(C)C (stereo not drawn)
inactive: SF-268 > 100 µM | UO-31 > 100 µM | UACC-257 > 100 µM | EKVX > 100 µM | SK-MEL-28 > 100 µM | HCT-116 > 100 µM | COLO 205 > 100 µM | M14 > 100 µM | HOP-62 > 100 µM | OVCAR-5 > 100 µM | RXF 393 > 100 µM | A549 > 100 µM | SK-MEL-2 > 100 µM | HCC 2998 > 100 µM | RPMI-8226 > 100 µM | MOLT-4 > 100 µM | HL-60 > 100 µM | SN12C > 100 µM | OVCAR-3 > 100 µM | SK-MEL-5 > 100 µM

CCOC(=O)C1(C#N)C(c2ccccc2)CC(O)(c2ccc(Cl)cc2)C(C(=O)c2ccc(Cl)cc2)C1c1ccccc1 (stereo not drawn)
inactive: SF-268 > 100 µM | UO-31 > 100 µM | UACC-257 > 100 µM | EKVX 52.2 µM | SK-MEL-28 > 100 µM | HCT-116 > 100 µM | COLO 205 > 100 µM | M14 > 100 µM | HOP-62 > 100 µM | OVCAR-5 > 100 µM | RXF 393 37.8 µM | A549 > 100 µM | SK-MEL-2 > 100 µM | HCC 2998 > 100 µM | RPMI-8226 76.6 µM | MOLT-4 80.4 µM | HL-60 > 100 µM | SN12C > 100 µM | OVCAR-3 > 100 µM | SK-MEL-5 > 100 µM

OC1(C(O)(c2ccc(-c3ccccc3)cc2)c2ccc(-c3ccccc3)cc2)CCCCC1
inactive: SF-268 > 100 µM | UO-31 > 100 µM | UACC-257 > 100 µM | EKVX > 100 µM | SK-MEL-28 > 100 µM | HCT-116 > 100 µM | COLO 205 > 100 µM | M14 > 100 µM | HOP-62 > 100 µM | OVCAR-5 > 100 µM | RXF 393 > 100 µM | A549 81.5 µM | SK-MEL-2 > 100 µM | HCC 2998 85.3 µM | RPMI-8226 > 100 µM | MOLT-4 23.9 µM | HL-60 > 100 µM | SN12C > 100 µM | OVCAR-3 > 100 µM | SK-MEL-5 63.4 µM

CSc1ccc2c(cc1=O)[C@@H](NC(=O)c1cccc([N+](=O)[O-])c1)CCc1cc(O)c(O)c(O)c1-2
inactive: SF-268 57.9 µM | UO-31 > 100 µM | UACC-257 87.9 µM | EKVX 50.9 µM | SK-MEL-28 > 100 µM | HCT-116 20 µM | COLO 205 38.9 µM | M14 25.3 µM | HOP-62 > 100 µM | OVCAR-5 > 100 µM | RXF 393 51.2 µM | A549 53.6 µM | SK-MEL-2 34.8 µM | HCC 2998 92.7 µM | RPMI-8226 28.1 µM | MOLT-4 21.6 µM | HL-60 26.1 µM | SN12C 27.3 µM | OVCAR-3 35.5 µM

O=C1N=CN=C2C=CC(Cl)=C(I)C12 (stereo not drawn)
inactive: SF-268 20.2 µM | UO-31 26.2 µM | UACC-257 > 100 µM | EKVX 9.4 µM | SK-MEL-28 > 100 µM | HCT-116 42.5 µM | COLO 205 > 100 µM | M14 > 100 µM | HOP-62 67.5 µM | OVCAR-5 > 100 µM | RXF 393 23.3 µM | A549 > 100 µM | SK-MEL-2 81.5 µM | HCC 2998 > 100 µM | RPMI-8226 56.2 µM | MOLT-4 67.1 µM | HL-60 93.5 µM | SN12C > 100 µM | OVCAR-3 63 µM | SK-MEL-5 98.2 µM

C=C1c2nc3ccccc3n2C=C(c2ccc(OC)cc2)N1c1ccccc1
inactive: SF-268 50 µM | UO-31 9.02 µM | UACC-257 13.3 µM | EKVX 19 µM | SK-MEL-28 29.6 µM | HCT-116 3.95 µM | COLO 205 5.36 µM | M14 4.43 µM | HOP-62 36.8 µM | OVCAR-5 > 78.5 µM | RXF 393 6.71 µM | A549 5.37 µM | SK-MEL-2 5.28 µM | HCC 2998 3.75 µM | RPMI-8226 3.65 µM | MOLT-4 3.95 µM | HL-60 1.59 µM | SN12C 24 µM | OVCAR-3 6.62 µM | SK-MEL-5 3.99 µM

COc1ccc(N2C(=O)[C@@H]3[C@H](C2=O)c2[nH]c4ccccc4c2C2CCC(C(C)(C)C)C[C@@H]23)cc1 (stereo partly drawn)
inactive: SF-268 29.9 µM | UO-31 > 47.4 µM | UACC-257 40.6 µM | EKVX 28.4 µM | SK-MEL-28 34.4 µM | HCT-116 30.5 µM | COLO 205 24 µM | M14 29.2 µM | HOP-62 16.5 µM | OVCAR-5 > 100 µM | RXF 393 17.3 µM | A549 24.2 µM | SK-MEL-2 30.4 µM | HCC 2998 29.5 µM | RPMI-8226 22.4 µM | MOLT-4 14.4 µM | HL-60 > 100 µM | SN12C 14 µM | OVCAR-3 21.5 µM | SK-MEL-5 41.2 µM

CC(=NNC(=S)Nc1ccccc1C)c1cccc(C(C)=NNC(=S)Nc2ccccc2C)n1
inactive: SF-268 5.81 µM | UO-31 45.9 µM | UACC-257 27.6 µM | EKVX 76 µM | SK-MEL-28 13 µM | HCT-116 18.4 µM | COLO 205 10.9 µM | M14 15.8 µM | HOP-62 6.56 µM | OVCAR-5 > 100 µM | RXF 393 13.4 µM | A549 24.2 µM | SK-MEL-2 74.3 µM | HCC 2998 > 100 µM | RPMI-8226 > 100 µM | MOLT-4 14.1 µM | HL-60 19.7 µM | SN12C 44.6 µM | SK-MEL-5 1.3 µM

C[n+]1c2ccccc2c(NCC(=O)O)c2ccccc21
inactive: SF-268 > 100 µM | UO-31 > 100 µM | UACC-257 > 100 µM | EKVX 87.5 µM | HCT-116 86.7 µM | COLO 205 > 100 µM | M14 > 100 µM | HOP-62 > 100 µM | OVCAR-5 > 100 µM | RXF 393 > 100 µM | A549 > 100 µM | SK-MEL-2 > 100 µM | HCC 2998 > 100 µM | RPMI-8226 > 100 µM | MOLT-4 > 100 µM | HL-60 > 100 µM | SN12C > 100 µM | OVCAR-3 > 100 µM | SK-MEL-5 > 100 µM

Cc1c(CCO)c(O)n2c(nc3ccccc32)c1C#N
inactive: SF-268 > 100 µM | UO-31 65.8 µM | UACC-257 > 100 µM | EKVX > 100 µM | SK-MEL-28 > 100 µM | HCT-116 41.3 µM | COLO 205 > 100 µM | M14 84.1 µM | HOP-62 > 100 µM | OVCAR-5 > 100 µM | RXF 393 > 100 µM | A549 > 100 µM | SK-MEL-2 91.6 µM | HCC 2998 > 100 µM | RPMI-8226 26.7 µM | HL-60 10 µM | OVCAR-3 92.5 µM | SK-MEL-5 21.8 µM

O=S(=O)(O)c1cc(/N=N/c2c(O)ccc3ccccc23)cc2c(S(=O)(=O)O)cccc12
inactive: SF-268 > 100 µM | UO-31 > 100 µM | UACC-257 > 100 µM | EKVX > 100 µM | SK-MEL-28 > 100 µM | HCT-116 > 100 µM | COLO 205 > 100 µM | M14 > 100 µM | HOP-62 > 100 µM | OVCAR-5 > 100 µM | RXF 393 > 100 µM | A549 > 100 µM | SK-MEL-2 > 100 µM | HCC 2998 > 100 µM | RPMI-8226 > 100 µM | MOLT-4 > 100 µM | HL-60 > 100 µM | OVCAR-3 > 100 µM | SK-MEL-5 > 100 µM

CC(NO)/C(=N/O)c1ccco1 (stereo not drawn)
inactive: SF-268 > 10 µM | UO-31 > 10 µM | UACC-257 > 10 µM | EKVX > 10 µM | HCT-116 > 10 µM | COLO 205 > 10 µM | M14 > 10 µM | HOP-62 > 10 µM | OVCAR-5 > 10 µM | RXF 393 > 10 µM | A549 > 10 µM | SK-MEL-2 > 10 µM | HCC 2998 > 10 µM | RPMI-8226 > 10 µM | MOLT-4 > 10 µM | HL-60 > 10 µM | SN12C > 10 µM | OVCAR-3 > 10 µM

CC(=O)OCCOCn1cnc2c(Cl)nc(Cl)nc21
inactive: SF-268 17.9 µM | UO-31 21.2 µM | UACC-257 17.1 µM | EKVX 2.84 µM | HCT-116 18.2 µM | COLO 205 18.6 µM | M14 17.1 µM | HOP-62 17.7 µM | OVCAR-5 19.1 µM | RXF 393 > 10 µM | A549 > 10 µM | SK-MEL-2 22.3 µM | HCC 2998 12.2 µM | RPMI-8226 5.97 µM | MOLT-4 19.2 µM | HL-60 2.65 µM | SN12C 18.5 µM | OVCAR-3 14 µM | SK-MEL-5 18.1 µM

Cc1ccc2c(c1)C(=O)C1(C2)Cc2ccc(C)cc2C1=O
inactive: SF-268 > 100 µM | UO-31 > 100 µM | UACC-257 > 100 µM | EKVX > 100 µM | HCT-116 > 100 µM | M14 > 100 µM | HOP-62 > 100 µM | OVCAR-5 > 100 µM | RXF 393 > 100 µM | A549 > 100 µM | SK-MEL-2 87.3 µM | HCC 2998 > 100 µM | RPMI-8226 > 100 µM | MOLT-4 > 100 µM | HL-60 > 100 µM | OVCAR-3 > 100 µM | SK-MEL-5 > 100 µM

Reference: ChEMBL document CHEMBL1201862, “PubChem BioAssay data set” (2004)
